Read-outs that look alike come from different tables or passages of the source.
Experiments:
Primary T cells = assay: Cytotoxicity, viability by flow cytometry; format: cell-based
Procedure: Primary T cells are cultured and treated with different concentrations of the test compound. Viability is analysed by measuring through flow cytometry based techniques the percentage of viable cells, compared to untreated control=100%).

[1] = molecular target: human CDK9/CyclinT kinase complex (Homo sapiens (Human), UniProt P50750); assay: In Vitro CDK9/CyclinT Assay (IMAP fluorescent polarization); format: biochemical
human CDK9/CyclinT kinase complex, sequence (P50750 whole entry): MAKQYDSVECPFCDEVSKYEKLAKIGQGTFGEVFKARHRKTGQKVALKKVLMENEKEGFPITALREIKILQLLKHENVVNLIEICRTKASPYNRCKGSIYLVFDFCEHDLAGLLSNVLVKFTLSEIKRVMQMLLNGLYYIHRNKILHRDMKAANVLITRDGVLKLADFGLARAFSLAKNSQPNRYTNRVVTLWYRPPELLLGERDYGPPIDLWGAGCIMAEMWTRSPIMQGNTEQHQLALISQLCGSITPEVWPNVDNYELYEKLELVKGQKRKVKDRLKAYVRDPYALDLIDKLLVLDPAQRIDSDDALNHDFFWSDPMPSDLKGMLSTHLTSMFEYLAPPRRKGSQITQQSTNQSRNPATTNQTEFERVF
human CDK9/CyclinT kinase complex, sequence (O60563 whole entry partner): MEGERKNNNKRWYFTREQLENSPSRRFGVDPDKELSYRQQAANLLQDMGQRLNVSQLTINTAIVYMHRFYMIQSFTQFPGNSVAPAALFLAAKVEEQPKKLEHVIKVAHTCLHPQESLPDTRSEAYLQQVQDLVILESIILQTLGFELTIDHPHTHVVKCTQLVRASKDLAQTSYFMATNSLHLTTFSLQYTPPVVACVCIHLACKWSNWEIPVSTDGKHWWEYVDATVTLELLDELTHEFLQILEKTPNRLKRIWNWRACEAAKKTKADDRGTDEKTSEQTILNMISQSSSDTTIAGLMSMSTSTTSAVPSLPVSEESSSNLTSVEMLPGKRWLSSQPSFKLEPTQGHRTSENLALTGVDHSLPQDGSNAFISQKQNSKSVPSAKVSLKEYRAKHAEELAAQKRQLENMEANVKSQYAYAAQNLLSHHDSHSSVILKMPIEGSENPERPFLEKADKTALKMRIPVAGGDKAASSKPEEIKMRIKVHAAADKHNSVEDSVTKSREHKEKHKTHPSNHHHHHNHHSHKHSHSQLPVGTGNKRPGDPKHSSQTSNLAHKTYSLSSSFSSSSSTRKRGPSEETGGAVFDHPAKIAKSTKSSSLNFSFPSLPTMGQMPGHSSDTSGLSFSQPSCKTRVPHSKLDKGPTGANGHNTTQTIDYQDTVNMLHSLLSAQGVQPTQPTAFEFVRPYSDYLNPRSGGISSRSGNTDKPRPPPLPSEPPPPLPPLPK
Procedure: In Vitro CDK9/CyclinT Assay
The activity of the compounds described in the present invention can be determined by measuring the phosphorylation of a fluorescently-labeled peptide by human CDK9/CyclinT kinase complex by fluorescent polarization using a commercially available IMAP Screening Express Assay Kit (Molecular devices).
Test compounds were diluted in 100% DMSO to 5 mM stock concentration, then further dilutions were made in H2O or 100% DMSO to desirable concentrations. Each reaction consisted of 5 nM enzyme: CDK9/CyclinT (Proqinase cat#0371-0345-1), 400 nM TAMRA-Rbtide (synthetic 15-mer peptide derived from human retinoblastoma tumor suppressor protein labeled with TAMRA dye, Genecust Europe), 12 μM ATP (=Kmapp, Sigma-Aldrich) and kinase buffer: 20 mM MOPS pH 7 (Sigma-Aldrich), 1 mM DTT (Sigma-Aldrich), 10 mM MgCl2 (Sigma-Aldrich), 0.01% Tween 20 (Sigma-Aldrich).
For each reaction, 4 or 6 μl containing TAMRA-Rbtide, ATP and kianse buffer were combined with 2 μl diluted compound in H2O or 0.028 μl compound in 100% DMSO. The kinase reaction was started by the addition of 2 μl diluted enzyme. The reaction was allowed to run for 1 hour at room temperature. The reaction was stopped by adding 15 μl IMAP beads (1:400 beads in progressive (100% buffer A) 1× buffer).

[2] = Table 4, toxic dose 50%, viable cells

Row | SMILES | TD50 (Primary T cells) [µM] | IC50 [1] [nM] | IC50 ([1]; Table 1) [nM] | TD50 (Primary T cells; [2]) [µM] | TD50 (Primary T cells; Table 5) [µM] | IC50 ([1]; Table 5) [nM]
1 | COc1ccc(Nc2cc(-c3ccccc3OC)ncn2)cc1C(=O)NCc1ccncc1 [Example 28, 2-Methoxy-5-(6-(2-methoxyphenyl)pyrimidin-4-ylamino)-N-(pyridin-4-ylmethyl)benzamide] | >0.5 | < 1000 | – | – | – | –
2 | COc1ccc(Nc2cc(-c3ccccc3OC)ncn2)cc1C=O [Example 29, 2-Methoxy-5-(6-(2-methoxyphenyl)pyrimidin-4-ylamino)benzaldehyde] | >0.5 | – | < 1000 | – | – | –
3 | COC(=O)c1cc(Nc2cc(-c3ccccc3OC)ncn2)ccc1OC [Example 30, Methyl 2-methoxy-5-(6-(2-methoxyphenyl)pyrimidin-4-ylamino)benzoate] | >0.5 | – | < 100 | – | – | –
4 | COc1ccc(Nc2cc(-c3ccccc3OC)ncn2)cc1C(=O)NN [Example 33, 2-Methoxy-5-(6-(2-methoxyphenyl)pyrimidin-4-ylamino)benzohydrazide] | >5 | – | < 100 | – | – | –
5 | COc1ccc(Nc2cc(-c3ccccc3OC)ncn2)cc1CNc1ccccc1 [Example 34, N-(4-Methoxy-3-((phenylamino)methyl)phenyl)-6-(2-methoxyphenyl)pyrimidin-4-amine] | >5 | < 10000 | – | – | – | –
6 | COc1ccc(Nc2cc(-c3ccccc3OC)ncn2)cc1OCc1ccccc1 [Example 36, N-(3-(Benzyloxy)-4-methoxyphenyl)-6-(2-methoxyphenyl)pyrimidin-4-amine] | – | < 10000 | – | >5 | – | –
7 | COc1ccccc1-c1cc(Nc2ccc(N3CCN(C)CC3)c(S(N)(=O)=O)c2)ncn1 [Example 38, 5-(6-(2-Methoxyphenyl)pyrimidin-4-ylamino)-2-(4-methylpiperazin-1-yl)benzenesulfonamide] | <1.5 | – | < 100 | – | – | –
8 | CCOc1ccc(Nc2cc(-c3ccccc3OC)ncn2)cc1Cn1cnc2ccccc21 [Example 39, N-(3-((1H-Benzo[d]imidazol-1-yl)methyl)-4-ethoxyphenyl)-6-(2-methoxyphenyl)pyrimidin-4-amine] | 0.6 | – | < 100 | – | – | –
9 | COc1ccccc1-c1cc(Nc2ccc(F)c(Cn3cnc4ccccc43)c2)ncn1 [Example 40, N-(3-((1H-Benzo[d]imidazol-1-yl)methyl)-4-fluorophenyl)-6-(2-methoxyphenyl)pyrimidin-4-amine] | 0.4 | – | < 100 | – | – | –
10 | COc1ccccc1-c1cc(Nc2ccc(Cl)c(C(N)=O)c2)ncn1 [Example 44, 2-Chloro-5-(6-(2-methoxyphenyl)pyrimidin-4-ylamino)benzamide] | >5 | < 1000 | – | – | – | –
11 | COc1ccc(Nc2cc(-c3ccccc3OC)ncn2)cc1C(=O)N(C)N [Example 46, 2-Methoxy-5-[6-(2-methoxy-phenyl)-pyrimidin-4-ylamino]-benzoic acid N-methyl-hydrazide] | – | – | < 1000 | >10 | >10 | < 1000
12 | COc1ccc(-c2cc(Nc3ccc(OC)c(N)c3)ncn2)cc1 [Example 66, 4-Methoxy-N^1-[6-(4-methoxy-phenyl)-pyrimidin-4-yl]-benzene-1,3-diamine] | >10 | > 10000 | – | – | – | –
13 | COc1cccc(-c2cc(Nc3ccc(OC)c(N)c3)ncn2)c1 [Example 68, 4-Methoxy-N^1-[6-(3-methoxy-phenyl)-pyrimidin-4-yl]-benzene-1,3-diamine] | >10 | – | > 10000 | – | – | –
14 | COc1ccc(Nc2cc(-c3ccccc3O)ncn2)cc1N [Example 70, 2-[6-(3-Amino-4-methoxy-phenylamino)-pyrimidin-4-yl]-phenol] | >10 | – | > 10000 | – | – | –
15 | COc1ccc(Nc2cc(-c3ccccc3OCc3ccccc3)ncn2)cc1N [Example 71, N^1-[6-(2-Benzyloxy-phenyl)-pyrimidin-4-yl]-4-methoxy-benzene-1,3-diamine] | >10 | – | < 1000 | – | – | < 1000
16 | COc1ccc(Nc2cc(-c3ccccc3Oc3ccccc3)ncn2)cc1N [Example 77, 4-Methoxy-N^1-[6-(2-phenoxy-phenyl)-pyrimidin-4-yl]-benzene-1,3-diamine] | 10 | – | < 10000 | – | – | –
17 | COc1ccc(Nc2cc(-c3cccc(F)c3OC)ncn2)cc1N [Example 81, N^1-[6-(3-Fluoro-2-methoxy-phenyl)-pyrimidin-4-yl]-4-methoxy-benzene-1,3-diamine] | 3 | < 10000 | – | – | – | –
18 | COc1ccc(Nc2cc(-c3ccc(F)cc3OC(C)C)ncn2)cc1N [Example 86, N^1-[6-(4-Fluoro-2-isopropoxy-phenyl)-pyrimidin-4-yl]-4-methoxy-benzene-1,3-diamine] | 4 | – | < 1000 | – | – | –
19 | COc1ccccc1-c1cc(Nc2cc(N)c(OC)c(F)c2)ncn1 [Example 88, 5-Fluoro-4-methoxy-N^1-[6-(2-methoxy-phenyl)-pyrimidin-4-yl]-benzene-1,3-diamine] | >20 | < 1000 | – | – | – | –
20 | CCOc1cc(F)ccc1-c1cc(Nc2cc(N)c(OC)c(F)c2)ncn1 [Example 89, N^1-[6-(2-Ethoxy-4-fluoro-phenyl)-pyrimidin-4-yl]-5-fluoro-4-methoxy-benzene-1,3-diamine] | >20 | – | < 1000 | – | – | –
21 | COc1cc(F)ccc1-c1cc(Nc2cc(N)c(OC)c(F)c2)ncn1 [Example 90, 5-Fluoro-N^1-[6-(4-fluoro-2-methoxy-phenyl)-pyrimidin-4-yl]-4-methoxy-benzene-1,3-diamine] | >20 | < 1000 | – | – | – | –
22 | COc1cc(F)c(Nc2cc(-c3ccccc3OC)ncn2)cc1N [Example 92, 4-Fluoro-6-methoxy-N^3-[6-(2-methoxy-phenyl)-pyrimidin-4-yl]-benzene-1,3-diamine] | >20 | – | < 10000 | – | – | –
23 | CCOc1ccc(Nc2cc(-c3ccccc3OC)ncn2)cc1N [Example 101, 4-Ethoxy-N^1-[6-(2-methoxy-phenyl)-pyrimidin-4-yl]-benzene-1,3-diamine] | 12 | < 1000 | – | – | – | –
24 | CCOc1ccc(Nc2cc(-c3ccc(F)cc3OC)ncn2)cc1N [Example 105, 4-Ethoxy-N^1-[6-(4-fluoro-2-methoxy-phenyl)-pyrimidin-4-yl]-benzene-1,3-diamine] | 7 | – | < 1000 | – | – | –
25 | CCOc1ccc(Nc2cc(-c3ccc(F)cc3OC)ncn2)cc1O [Example 114, 2-Ethoxy-5-[6-(4-fluoro-2-methoxy-phenyl)-pyrimidin-4-ylamino]-phenol] | 10 | < 1000 | – | – | – | –
26 | COc1ccc(Nc2cc(-c3ccc(F)cc3OC)ncn2)cc1NC(C)=O [Example 117, N-{5-[6-(4-Fluoro-2-methoxy-phenyl)-pyrimidin-4-ylamino]-2-methoxy-phenyl}-acetamide] | – | < 1000 | – | >2 | – | –
27 | COC(=O)Nc1cc(Nc2cc(-c3ccc(F)cc3OC)ncn2)ccc1OC [Example 118, {5-[6-(4-Fluoro-2-methoxy-phenyl)-pyrimidin-4-ylamino]-2-methoxy-phenyl}-carbamic acid methyl ester] | – | – | < 1000 | >2 | >2 | < 1000
28 | COc1ccc(Nc2cc(-c3cc(F)ccc3OC)ncn2)cc1O [Example 122, 5-[6-(5-Fluoro-2-methoxy-phenyl)-pyrimidin-4-ylamino]-2-methoxy-phenol] | >2 | – | < 1000 | – | – | –

Source: patent US9617225B2 (VIROSTATICS SRL, priority 2012, dated 2017)
